For the assay, the target named is T1, ALK (baculovirus expressed human ALK kinase domain F1098-K1410) (Homo sapiens, UniProt Q9UM73).
T1 construct: human ALK kinase domain F1098-K1410; made in house
In words: biochemical. The conditions noted are these: 1 μM ATP, 4 μM poly-AEKY, 12 nM ALK, 2 hours at ambient temperature; read-out: ALK IC50. The procedure, abridged: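 Baculovirus-expressed human ALK kinase domain (F1098-K1410) was run in a luciferase-coupled chemiluminescent format, with ATP near its KM. After 2 h at ambient temperature, remaining ATP was read by luciferase-luciferin luminescence. IC50 came from 10-point dose-response curves fitted to a four-parameter equation with Hill slope.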

T1 sequence (Q9UM73 1098-1410): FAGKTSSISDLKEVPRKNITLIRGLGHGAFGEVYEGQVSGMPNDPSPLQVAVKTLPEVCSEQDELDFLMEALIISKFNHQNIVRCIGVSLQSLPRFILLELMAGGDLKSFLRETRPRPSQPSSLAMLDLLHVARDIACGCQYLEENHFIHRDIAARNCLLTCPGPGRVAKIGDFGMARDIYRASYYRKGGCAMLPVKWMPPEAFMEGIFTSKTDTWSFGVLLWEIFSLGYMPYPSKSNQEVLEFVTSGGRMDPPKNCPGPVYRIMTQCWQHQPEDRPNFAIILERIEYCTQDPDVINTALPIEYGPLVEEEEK

With `CC1CCCN(C(=O)c2csc(CNC(=O)COc3ccc(OC(F)(F)F)cc3)n2)C1` (centres unmarked) [Entry 289, N-({4-[(3-methylpiperidin-1-yl)carbonyl]-1,3-thiazol-2-yl}methyl)-2-({4-[(trifluoromethyl)oxy]phenyl}oxy)acetamide], the IC50 lay within 500 to 2000 nM.

`O=C(COc1ccc(OC(F)(F)F)cc1)NCc1nc(C(=O)NCCN2CCCCC2)cs1` [Entry 290, N-(2-piperidin-1-ylethyl)-2-({[({4-[(trifluoromethyl)oxy]phenyl}oxy)acetyl]amino}methyl)-1,3-thiazole-4-carboxamide]: the half-maximal inhibitory concentration (IC50) fell in the range of 500 to 2000 nM.

As for `O=C(COc1ccc(OC(F)(F)F)cc1)NCc1nc(C(=O)NCc2ccc(Cl)c(Cl)c2)co1` [Entry 291, N-[(3,4-dichlorophenyl)methyl]-2-({[({4-[(trifluoromethyl)oxy]phenyl}oxy)acetyl]amino}methyl)-1,3-oxazole-4-carboxamide], the 50% inhibitory concentration (IC50) was 500 to 2000 nM.

Take `O=C(COc1ccc(OC(F)(F)F)cc1)NCc1nc(C(=O)NCc2ccc(F)cc2)co1` [Entry 292, N-[(4-fluorophenyl)methyl]-2-({[({4-[(trifluoromethyl)oxy]phenyl}oxy)acetyl]amino}methyl)-1,3-oxazole-4-carboxamide]: the IC50 fell in the range of 500 to 2000 nM.

`O=C(COc1ccc(OC(F)(F)F)cc1)NCc1nc(C(=O)NC2CCCc3ccccc32)co1` (centres unmarked) [Entry 293, N-(1,2,3,4-tetrahydronaphthalen-1-yl)-2-({[({4-[(trifluoromethyl)oxy]phenyl}oxy)acetyl]amino}methyl)-1,3-oxazole-4-carboxamide]: the IC50 was in the range of 500 to 2000 nM.

As to `O=C(COc1ccc(OC(F)(F)F)cc1)NCc1nc(C(=O)N2CCC3CCCCC3C2)cs1` (centres unmarked) [Entry 294, N-{[4-(octahydroisoquinolin-2(1H)-ylcarbonyl)-1,3-thiazol-2-yl]methyl}-2-({4-[(trifluoromethyl)oxy]phenyl}oxy)acetamide], the IC50 was 500 to 2000 nM.

`CN(C(=O)OC(C)(C)C)C1CCN(C(=O)c2csc(CNC(=O)COc3ccc(OC(F)(F)F)cc3)n2)C1` (centres unmarked) [Entry 295, 1,1-dimethylethyl methyl(1-{[2-({[({4-[(trifluoromethyl)oxy]phenyl}oxy)acetyl]amino}methyl)-1,3-thiazol-4-yl]carbonyl}pyrrolidin-3-yl)carbamate]: the 50% inhibitory concentration (IC50) was in the range of 500 to 2000 nM.

Turning to `O=C(COc1ccc(OC(F)(F)F)cc1)NCc1nc(C(=O)NCCc2ccccn2)co1` [Entry 296, N-(2-pyridin-2-ylethyl)-2-({[({4-[(trifluoromethyl)oxy]phenyl}oxy)acetyl]amino}methyl)-1,3-oxazole-4-carboxamide], the IC50 lay in the range of 500 to 2000 nM.

Turning to `O=C(COc1ccc(OC(F)(F)F)cc1)NCc1nc(C(=O)NCc2ccccc2)co1` [Entry 297, N-(phenylmethyl)-2-({[({4-[(trifluoromethyl)oxy]phenyl}oxy)acetyl]amino}methyl)-1,3-oxazole-4-carboxamide], the IC50 was 500 to 2000 nM.

`O=C(NCc1nc(C(=O)NCCc2cccc(Cl)c2)cs1)OCc1ccc(OC(F)(F)F)cc1` [Entry 298, {4-[(trifluoromethyl)oxy]phenyl}methyl {[4-({[2-(3-chlorophenyl)ethyl]amino}carbonyl)-1,3-thiazol-2-yl]methyl}carbamate]: the IC50 lay within 500 to 2000 nM.

In the case of `O=C(COc1ccc(OC(F)(F)F)cc1)NCc1cc(C(=O)NCCc2cccc(Cl)c2)no1` [Entry 299, N-[2-(3-chlorophenyl)ethyl]-5-({[({4-[(trifluoromethyl)oxy]phenyl}oxy)acetyl]amino}methyl)isoxazole-3-carboxamide], the IC50 is above 2000 nM.

As to `NCc1nc(C(=O)NCCc2cccc(Cl)c2)cs1` [Entry 300, 2-(aminomethyl)-N-[2-(3-chlorophenyl)ethyl]-1,3-thiazole-4-carboxamide], the 50% inhibitory concentration (IC50) was above 2000 nM.

As to `CO[C@@H]1[C@@H](C)/C=C(\C)[C@H](OC(N)=O)[C@@H](OC)/C=C\C=C(/C)C(=O)NC2=CC(=O)C=C(C2=O)[C@H](OC)[C@@H](C)C[C@H]1OC` [Entry 301, (4E,6Z,8S,9S,10E,12S,13R,14R,16S,17R)-4,10,12,16-tetramethyl-8,13,14,17-tetrakis(methyloxy)-3,20,22-trioxo-2-azabicyclo[16.3.1]docosa-1(21),4,6,10,18-pentaen-9-yl carbamate, reference compound], the IC50 was above 2000 nM.

Turning to `O=C(COc1ccc(OC(F)(F)F)cc1)NCc1nc(C(=O)O)cs1` [Entry 302, 2-({[({4-[(trifluoromethyl)oxy]phenyl}oxy)acetyl]amino}methyl)-1,3-thiazole-4-carboxylic acid], the IC50 was above 2000 nM.

As for `COc1cccc(CNC(=O)c2csc(CN)n2)c1OC` [Entry 303, 2-(aminomethyl)-N-{[2,3-bis(methyloxy)phenyl]methyl}-1,3-thiazole-4-carboxamide], the half-maximal inhibitory concentration (IC50) is above 2000 nM.

Consider `COc1ccccc1CNC(=O)c1csc(CN)n1` [Entry 304, 2-(aminomethyl)-N-{[2-(methyloxy)phenyl]methyl}-1,3-thiazole-4-carboxamide], for which the IC50 was above 2000 nM.

On to `NCc1nc(C(=O)NCCc2ccccc2F)cs1` [Entry 305, 2-(aminomethyl)-N-[2-(2-fluorophenyl)ethyl]-1,3-thiazole-4-carboxamide], for which the concentration for half-maximal inhibition (IC50) is above 2000 nM.

In the case of `O=C(COc1ccc(OC(F)(F)F)cc1)NCc1nc(C(=O)NCCc2cccc(Cl)c2)c[nH]1` [Entry 306, N-[2-(3-chlorophenyl)ethyl]-2-({[({4-[(trifluoromethyl)oxy]phenyl}oxy)acetyl]amino}methyl)-1H-imidazole-4-carboxamide], the half-maximal inhibitory concentration (IC50) is above 2000 nM.

On to `NCc1nc(C(=O)NCCc2cccc(Cl)c2)co1` [Entry 307, 2-(aminomethyl)-N-[2-(3-chlorophenyl)ethyl]-1,3-oxazole-4-carboxamide], for which the 50% inhibitory concentration (IC50) was above 2000 nM.

On to `O=C(COc1ccc(OC(F)(F)F)cc1)NCc1nc(C(=O)O)co1` [Entry 308, 2-({[({4-[(trifluoromethyl)oxy]phenyl}oxy)acetyl]amino}methyl)-1,3-oxazole-4-carboxylic acid], for which the IC50 is above 2000 nM.

Take `O=C(NCCc1cccc(Cl)c1)c1csc(CNCc2ccc(OC(F)(F)F)cc2)n1` [Entry 309, N-[2-(3-chlorophenyl)ethyl]-2-{[({4-[(trifluoromethyl)oxy]phenyl}methyl)amino]methyl}-1,3-thiazole-4-carboxamide]: the concentration for half-maximal inhibition (IC50) was above 2000 nM.

`CCC1COC(C)(CCC(C)C)N1C(=O)c1csc(CNC(=O)COc2ccc(OC(F)(F)F)cc2)n1` (centres unmarked) [Entry 310, N-[(4-{[4-ethyl-2-methyl-2-(3-methylbutyl)-1,3-oxazolidin-3-yl]carbonyl}-1,3-thiazol-2-yl)methyl]-2-({4-[(trifluoromethyl)oxy]phenyl}oxy)acetamide]: the concentration for half-maximal inhibition (IC50) was above 2000 nM.

As for `CCN(CC)C1CCN(C(=O)c2csc(CNC(=O)COc3ccc(OC(F)(F)F)cc3)n2)C1` (centres unmarked) [Entry 311, N-[(4-{[3-(diethylamino)pyrrolidin-1-yl]carbonyl}-1,3-thiazol-2-yl)methyl]-2-({4-[(trifluoromethyl)oxy]phenyl}oxy)acetamide], the IC50 was above 2000 nM.

By IC50 is commonly meant the midpoint of a concentration-inhibition curve.

The record behind these values is US7973061B2, “Anaplastic lymphoma kinase modulators and methods of use” (Exelixis, Inc., priority 2004, dated 2011).
